Test results from ChEMBL document CHEMBL1145261, “Design and synthesis of novel diphenacoum-derived, conformation-restricted vitamin K 2,3-epoxide reductase inhibitors” (Bioorg Med Chem Lett, 2005).

Molecular target: T1, Vitamin K epoxide reductase complex subunit 1 (Bos taurus, UniProt Q6B4J2)
T1 sequence (Q6B4J2 whole entry): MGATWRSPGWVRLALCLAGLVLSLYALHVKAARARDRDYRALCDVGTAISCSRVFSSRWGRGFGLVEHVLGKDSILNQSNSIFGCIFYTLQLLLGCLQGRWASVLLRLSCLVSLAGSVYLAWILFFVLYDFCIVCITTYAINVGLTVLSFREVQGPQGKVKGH
Assay: Inhibitory concentration against beef liver Vitamin K epoxide reductase (vitamin K 2,3-epoxide reductase)

SMILES	IC50
O=c1oc2ccccc2c2c1C1CC(c3ccc(-c4ccccc4)cc3)(Oc3ccccc31)O2 (configuration not stated)	1000 nM
O=c1oc2ccccc2c(O)c1C1CC(c2ccc(-c3ccccc3)cc2)Oc2ccccc21 (configuration not stated)	40 nM
